Each molecule was assayed against T1, UBR1 (Rattus norvegicus, UniProt A0A8I5ZK69) (assay: Inhibition of muscle cell actin degradation by immunoblotting). Conditions: L6 cell line, compound 5 uM, 24 hours.
T1 construct: endogenous in cells; host or cells: L6 rat muscle-derived cells
Type: cell-based
Description: To evaluate the actin degradation of compounds in muscle cells, a L6 cell line, which is a rat muscle-derived cell, was cultured using a DMEM medium containing 10% FBS and 1% streptomycin/penicillin in an incubator in which 5% carbon dioxide was maintained. In order to measure the UBR1 binding strength according to the treatment with a representative compound selected from the present compounds, cells were aliquoted into a 12-well plate. The cells were additionally cultured for 24 hours so as to be completely attached to the surface of the plate. […] To extract proteins from the collected cells, 50 uL of a lysis buffer (20 mM Tris, pH 7.4, 150 mM NaCl, 1% Triton-X-100, 2 mM NaF, 2 mM EDTA, 2 mM b-glycerophosphate, 5 mM sodium orthovanadate, 1 mM PMSF, leupeptin, aprotenin) was injected into each sample, and the cells were lysed. A sample buffer was added to each sample based on the measured total protein concentration, and the mixture was reacted at 100° C. for 5 minutes. After 5 uL was taken from the completely reacted sample and aliquoted into each well of an acrylamide gel, an immunoblotting method was performed, and the experimental results were illustrated in [FIG. 4], [FIG. 5], [FIG. 6], [FIG. 7], [FIG. 8], and [FIG. 9]. For the immunoblotting method, a representative experiment was schematized from three or more independent experiments.

T1 sequence (A0A8I5ZK69 1-1749): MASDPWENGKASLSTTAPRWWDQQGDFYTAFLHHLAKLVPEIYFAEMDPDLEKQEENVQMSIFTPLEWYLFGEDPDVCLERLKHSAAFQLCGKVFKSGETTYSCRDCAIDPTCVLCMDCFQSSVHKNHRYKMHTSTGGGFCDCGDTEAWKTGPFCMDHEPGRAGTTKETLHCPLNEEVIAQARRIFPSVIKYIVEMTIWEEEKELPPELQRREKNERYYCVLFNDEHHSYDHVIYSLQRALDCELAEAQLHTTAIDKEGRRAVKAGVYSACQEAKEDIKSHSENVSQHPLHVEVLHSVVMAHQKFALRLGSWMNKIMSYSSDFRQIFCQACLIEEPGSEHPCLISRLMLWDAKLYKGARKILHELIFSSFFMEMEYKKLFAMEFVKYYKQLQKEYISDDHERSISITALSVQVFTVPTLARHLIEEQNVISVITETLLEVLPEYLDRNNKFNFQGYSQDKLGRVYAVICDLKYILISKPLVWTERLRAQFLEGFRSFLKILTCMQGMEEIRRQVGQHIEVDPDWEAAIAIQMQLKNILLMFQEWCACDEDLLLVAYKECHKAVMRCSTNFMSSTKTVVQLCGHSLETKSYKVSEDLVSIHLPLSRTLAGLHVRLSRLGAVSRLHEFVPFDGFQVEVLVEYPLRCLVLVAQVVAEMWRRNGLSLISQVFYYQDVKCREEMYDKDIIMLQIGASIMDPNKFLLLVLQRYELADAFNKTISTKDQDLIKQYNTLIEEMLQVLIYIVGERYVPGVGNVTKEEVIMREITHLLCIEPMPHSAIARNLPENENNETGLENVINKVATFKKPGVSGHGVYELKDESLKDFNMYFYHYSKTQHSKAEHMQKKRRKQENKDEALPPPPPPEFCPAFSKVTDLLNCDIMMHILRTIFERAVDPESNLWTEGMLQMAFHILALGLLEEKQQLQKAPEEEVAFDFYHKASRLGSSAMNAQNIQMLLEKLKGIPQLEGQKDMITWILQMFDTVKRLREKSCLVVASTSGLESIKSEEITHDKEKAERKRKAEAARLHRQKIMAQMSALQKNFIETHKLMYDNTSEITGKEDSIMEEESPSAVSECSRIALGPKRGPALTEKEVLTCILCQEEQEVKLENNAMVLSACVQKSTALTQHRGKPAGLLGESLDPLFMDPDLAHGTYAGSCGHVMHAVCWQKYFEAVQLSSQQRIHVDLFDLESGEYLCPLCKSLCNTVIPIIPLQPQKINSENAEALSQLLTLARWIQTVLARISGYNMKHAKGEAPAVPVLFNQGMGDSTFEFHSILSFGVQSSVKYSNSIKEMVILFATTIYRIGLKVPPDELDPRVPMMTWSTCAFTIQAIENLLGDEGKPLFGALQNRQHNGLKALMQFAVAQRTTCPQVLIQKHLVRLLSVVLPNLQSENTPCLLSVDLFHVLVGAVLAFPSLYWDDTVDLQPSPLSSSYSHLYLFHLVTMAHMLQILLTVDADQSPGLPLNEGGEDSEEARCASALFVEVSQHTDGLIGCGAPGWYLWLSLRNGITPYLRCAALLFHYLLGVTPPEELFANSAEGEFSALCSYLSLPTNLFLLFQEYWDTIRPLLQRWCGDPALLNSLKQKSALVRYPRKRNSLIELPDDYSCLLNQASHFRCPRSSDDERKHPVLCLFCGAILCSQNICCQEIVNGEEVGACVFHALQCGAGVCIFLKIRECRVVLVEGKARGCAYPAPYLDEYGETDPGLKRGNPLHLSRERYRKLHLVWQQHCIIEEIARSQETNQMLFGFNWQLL

Molecule | level of ACTA1 compared to the control | level of ACTA2 compared to the control | level of ACTG2 compared to the control | level of ACTC1 compared to the control
Nc1ccc(S(=O)(=O)NNC(=O)c2ccc(-c3ccccc3)cc2)cc1 [Compound 6, N′-([1,1′-biphenyl]-4-carbonyl)-4-aminobenzenesulfonohydrazide] | further increased |  |  | 
Nc1cccc(S(=O)(=O)NNC(=O)c2ccc(O)cc2)c1 [Compound 8, 3-amino-N′-(4-hydroxybenzoyl)benzenesulfonohydrazide] |  | further increased |  | 
CC(N)c1ccc(S(=O)(=O)NNC(=O)c2ccc(O)cc2)cc1 (stereo not drawn) [Compound 9, 4-(1-aminoethyl)-N′-(4-hydroxybenzoyl)benzenesulfonohydrazide] |  | further increased |  | 
COc1ccc(S(=O)(=O)NNC(=O)c2ccc(O)cc2)cc1 [Compound 13, N′-(4-hydroxybenzoyl)-4-methoxybenzenesulfonohydrazide] |  |  | further increased | 
Nc1ccc(S(=O)(=O)NNC(=O)c2ccc(O)cc2)cc1-c1ccccc1 [Compound 17, 6-amino-N′-(4-hydroxybenzoyl)-[1,1′-biphenyl]-3-sulfonohydrazide] |  |  | further increased | 
NC(=O)c1ccc(C(=O)NNS(=O)(=O)c2ccc(N)cc2)cc1 [Compound 18, 4-(2-((4-aminophenyl)sulfonyl)hydrazine-1-carbonyl)benzamide] |  | further increased |  | 
Nc1ccc(CNNC(=O)c2ccc(O)cc2)cc1 [Compound 19, N′-(4-aminobenzyl)-4-hydroxybenzohydrazide] |  | further increased |  | 
Nc1ccc(S(=O)(=O)NNC(=O)c2ccc(O)cc2)cc1N1CCCCC1 [Compound 23, 4-amino-N′-(4-hydroxybenzoyl)-3-(piperidin-1-yl)benzenesulfonohydrazide] |  | further increased |  | 
O=C(NNS(=O)(=O)c1cn[nH]c1)c1ccc(O)cc1 [Compound 24, N′-(4-hydroxybenzoyl)-1H-pyrazole-4-sulfonohydrazide] |  | further increased |  | 
O=C(NNS(=O)(=O)c1cccc2c1CCN2)c1ccc(O)cc1 [Compound 25, N′-(4-hydroxybenzoyl)indoline-4-sulfonohydrazide] |  | further increased |  | 
Nc1ccc(S(=O)(=O)NNC(=O)c2cccc3[nH]ccc23)cc1N1CCOCC1 [Compound 28, 4-amino-N′-(1H-indole-4-carbonyl)-3-morpholinobenzenesulfonohydrazide] |  | further increased |  | 
Nc1ccc(S(=O)(=O)NNC(=O)C2Cc3ccccc3C2)cc1 [Compound 31, 4-amino-N′-(2,3-dihydro-1H-indene-2-carbonyl)benzenesulfonohydrazide] |  |  | further increased | 
Nc1ccc(S(=O)(=O)NNC(=O)N2Cc3ccccc3C2)cc1 [Compound 32, 4-amino-N′-(isoindoline-2-carbonyl)benzenesulfonohydrazide] |  | further increased |  | 
Nc1ccc(S(=O)(=O)NNC(=O)c2ccc3c(c2)NCC3)cc1N1CCOCC1 [Compound 39, 4-amino-N′-(indoline-6-carbonyl)-3-morpholinobenzenesulfonohydrazide] | further increased |  |  | 
Nc1ccc(S(=O)(=O)NNC(=O)N2CCNCC2)cc1N1CCOCC1 [Compound 41, 4-amino-3-morpholino-N′-(piperazine-1-carbonyl)benzenesulfonohydrazide] |  |  |  | further increased
NC1CCC(S(=O)(=O)NNC(=O)c2ccc(O)cc2)CC1 [Compound 43, (1S,4S)-4-amino-N′-(4-hydroxybenzoyl)cyclohexane-1-sulfonohydrazide] | further increased |  |  | 
O=C(NNS(=O)(=O)c1cc2cccnc2[nH]1)c1ccc(O)cc1 [Compound 47, N′-(4-hydroxybenzoyl)-1H-pyrrolo[2,3-b]pyridine-2-sulfonohydrazide] | further increased |  |  | 
(1R,4R)-4-amino-N′-(4-hydroxybenzoyl)cyclohexane-1-sulfonohydrazide [Compound 44] | further increased |  |  | 

The next lines start with the values.

level of ACTA1 compared to the control | level of ACTA2 compared to the control | level of ACTG2 compared to the control | level of ACTC1 compared to the control | Molecule
further increased |  |  |  | Cc1ccc(S(=O)(=O)NNC(=O)c2ccc(O)cc2)cc1 [Compound 1, N′-(4-hydroxybenzoyl)-4-methylbenzenesulfonohydrazide]
 |  | further increased |  | NC(=O)c1ccc(S(=O)(=O)NNC(=O)c2ccc(O)cc2)cc1 [Compound 15, 4-((2-(4-hydroxybenzoyl)hydrazinyl)sulfonyl)benzamide]
 | further increased |  |  | Nc1ccc(S(=O)(=O)NNC(=O)c2c[nH]c3ccccc23)cc1 [Compound 20, 4-amino-N′-(1H-indole-3-carbonyl)benzenesulfonohydrazide]
 | further increased |  |  | O=C(NNS(=O)(=O)c1ccc([N+](=O)[O-])c(N2CCCC2)c1)c1ccc(O)cc1 [Compound 22, N′-(4-hydroxybenzoyl)-4-nitro-3-(pyrrolidin-1-yl)benzenesulfonohydrazide]
 | further increased |  |  | O=C(NNS(=O)(=O)c1cccc2[nH]ccc12)c1ccc(O)cc1 [Compound 26, N′-(4-hydroxybenzoyl)-1H-indole-4-sulfonohydrazide]
 | further increased |  |  | Nc1ccc(S(=O)(=O)NNC(=O)Nc2ccccc2)cc1 [Compound 27, 2-((4-aminophenyl)sulfonyl)-N-phenylhydrazine-1-carboxamide]
 |  | further increased |  | Nc1ccc(S(=O)(=O)NNC(=O)c2cccc3c2CCN3)cc1 [Compound 29, 4-amino-N′-(indoline-4-carbonyl)benzenesulfonohydrazide]
 |  | further increased |  | Nc1ccc(S(=O)(=O)NNC(=O)c2ccc(O)cc2)cc1N1CCNCC1 [Compound 30, 4-amino-N′-(4-hydroxybenzoyl)-3-(piperazin-1-yl)benzenesulfonohydrazide]
 | further increased |  |  | Nc1ccc(S(=O)(=O)NNC(=O)Cc2ccccc2)cc1 [Compound 34, 4-amino-N′-(2-phenylacetyl)benzenesulfonohydrazide]
further increased |  |  |  | O=C(NNS(=O)(=O)c1n[nH]c2ccccc12)c1ccc(O)cc1 [Compound 35, N′-(4-hydroxybenzoyl)-1H-indazole-3-sulfonohydrazide]
further increased |  |  |  | Nc1ccc(S(=O)(=O)NNC(=O)c2ccc3c(c2)NCC3)cc1 [Compound 36, 4-amino-N′-(indoline-6-carbonyl)benzenesulfonohydrazide]
further increased |  |  |  | Nc1ccc(S(=O)(=O)NNC(=O)C2CNc3ccccc32)cc1 (stereo not drawn) [Compound 37, 4-amino-N′-(indoline-3-carbonyl)benzenesulfonohydrazide]
further increased |  |  |  | O=C(NNS(=O)(=O)C1CCNCC1)c1ccc(O)cc1 [Compound 38, N′-(4-hydroxybenzoyl)piperidine-4-sulfonohydrazide]
 |  |  | further increased | Cc1nc(S(=O)(=O)NNC(=O)c2ccc(O)cc2)cs1 [Compound 42, N′-(4-hydroxybenzoyl)-2-methylthiazole-4-sulfonohydrazide]
further increased |  |  |  | Cc1oc(C(=O)O)cc1S(=O)(=O)NNC(=O)c1ccc(O)cc1 [Compound 45, 4-((2-(4-hydroxybenzoyl)hydrazinyl)sulfonyl)-5-methylfuran-2-carboxylic acid]
further increased |  |  |  | O=C(NNS(=O)(=O)C1CCNC1)c1ccc(O)cc1 (stereo not drawn) [Compound 46, N′-(4-hydroxybenzoyl)pyrrolidine-3-sulfonohydrazide]

Each molecule was assayed against T2, UBR box of Human UBR1 (Homo sapiens, UniProt Q8IWV7) (assay: UBR box domain binding by microscale thermophoresis (MST)). Conditions: RED-NHS labeled UBR1 UBR box protein (Gln97-Pro168), FIGS. 12 to 19.
T2 construct: A Gln97-Pro168 portion corresponding to the UBR box of Human UBR1; made in house; host or cells: E. coli
Description: A Gln97-Pro168 portion corresponding to the UBR box of Human UBR1 (UniProt ID: Q81WV7) was cloned into a modified expression vector, and then expressed in E. coli. After affinity chromatography was used, a tag was removed by a protease, and then Gly-His-Met was added to the N-terminal. After ion chromatography was performed, a final UBR box protein of a UBR1 was purified using gel filtration chromatography in a buffer composition of 10 mM NaCl, 20 mM Tris-HCl, 2 mM beta-mercaptoethanol, and pH 7.5.
A dye of the Monolith protein labeling kit RED-NHS 2nd generation (Cat #MO-L011) has an NHS-ester group that forms a covalent bond with primary amines (lysine residues). This dye is optimized for a Monolith-series device equipped with a RED detector. A purified UBR1 UBR box protein was labeled according to the presented protocol using this kit.
Thermophoresis refers to a phenomenon in which particles move due to a temperature gradient. Particles present in a high temperature region have greater kinetic energy than particles present in a low temperature region, and more frequently collide with surrounding particles with greater energy. As a result, particles move from the high temperature region to the low temperature region.
Thermophoresis of proteins is typically different from that of protein-ligand complexes. This is because the binding of the ligand changes its size, electric charge, and solvation energy. […] Therefore, the binding of the UBR1 UBR box protein and the ligand compound was measured using MST, and it was confirmed that the presented ligand binds to the UBR1 UBR box (see FIGS. 12 to 19).

T2 sequence (Q8IWV7 97-168): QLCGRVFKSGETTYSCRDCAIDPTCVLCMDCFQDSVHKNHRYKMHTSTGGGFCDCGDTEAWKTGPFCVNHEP

binding to UBR1 UBR box (MST) | Molecule
binds | Cc1ccc(S(=O)(=O)NNC(=O)c2ccc(O)cc2)cc1 [Compound 1, N′-(4-hydroxybenzoyl)-4-methylbenzenesulfonohydrazide]
binds | Nc1cccc(S(=O)(=O)NNC(=O)c2ccc(O)cc2)c1 [Compound 8, 3-amino-N′-(4-hydroxybenzoyl)benzenesulfonohydrazide]
binds | CC(N)c1ccc(S(=O)(=O)NNC(=O)c2ccc(O)cc2)cc1 (stereo not drawn) [Compound 9, 4-(1-aminoethyl)-N′-(4-hydroxybenzoyl)benzenesulfonohydrazide]
binds | O=C(NNS(=O)(=O)c1ccc(NCCO)cc1)c1ccc(O)cc1 [Compound 11, N′-(4-hydroxybenzoyl)-4-((2-hydroxyethyl)amino)benzenesulfonohydrazide]
binds | COc1ccc(S(=O)(=O)NNC(=O)c2ccc(O)cc2)cc1 [Compound 13, N′-(4-hydroxybenzoyl)-4-methoxybenzenesulfonohydrazide]

Reference: patent US12559455B2, “Compound as a UBR box domain ligand” (AUTOTAC INC., priority 2020, dated 2026)
